Experiment [1] has as its target Tyrosine-protein kinase BTK (Homo sapiens, UniProt Q06187). Briefly: Inhibition of BTK (unknown origin) preincubated for 10 mins followed by kinase substrate and ATP addition and measured for 20 mins by mobility shift assay.
In experiment [2] the target is T1, Tyrosine-protein kinase JAK3 (Homo sapiens, UniProt P52333).
T1 sequence (P52333 whole entry): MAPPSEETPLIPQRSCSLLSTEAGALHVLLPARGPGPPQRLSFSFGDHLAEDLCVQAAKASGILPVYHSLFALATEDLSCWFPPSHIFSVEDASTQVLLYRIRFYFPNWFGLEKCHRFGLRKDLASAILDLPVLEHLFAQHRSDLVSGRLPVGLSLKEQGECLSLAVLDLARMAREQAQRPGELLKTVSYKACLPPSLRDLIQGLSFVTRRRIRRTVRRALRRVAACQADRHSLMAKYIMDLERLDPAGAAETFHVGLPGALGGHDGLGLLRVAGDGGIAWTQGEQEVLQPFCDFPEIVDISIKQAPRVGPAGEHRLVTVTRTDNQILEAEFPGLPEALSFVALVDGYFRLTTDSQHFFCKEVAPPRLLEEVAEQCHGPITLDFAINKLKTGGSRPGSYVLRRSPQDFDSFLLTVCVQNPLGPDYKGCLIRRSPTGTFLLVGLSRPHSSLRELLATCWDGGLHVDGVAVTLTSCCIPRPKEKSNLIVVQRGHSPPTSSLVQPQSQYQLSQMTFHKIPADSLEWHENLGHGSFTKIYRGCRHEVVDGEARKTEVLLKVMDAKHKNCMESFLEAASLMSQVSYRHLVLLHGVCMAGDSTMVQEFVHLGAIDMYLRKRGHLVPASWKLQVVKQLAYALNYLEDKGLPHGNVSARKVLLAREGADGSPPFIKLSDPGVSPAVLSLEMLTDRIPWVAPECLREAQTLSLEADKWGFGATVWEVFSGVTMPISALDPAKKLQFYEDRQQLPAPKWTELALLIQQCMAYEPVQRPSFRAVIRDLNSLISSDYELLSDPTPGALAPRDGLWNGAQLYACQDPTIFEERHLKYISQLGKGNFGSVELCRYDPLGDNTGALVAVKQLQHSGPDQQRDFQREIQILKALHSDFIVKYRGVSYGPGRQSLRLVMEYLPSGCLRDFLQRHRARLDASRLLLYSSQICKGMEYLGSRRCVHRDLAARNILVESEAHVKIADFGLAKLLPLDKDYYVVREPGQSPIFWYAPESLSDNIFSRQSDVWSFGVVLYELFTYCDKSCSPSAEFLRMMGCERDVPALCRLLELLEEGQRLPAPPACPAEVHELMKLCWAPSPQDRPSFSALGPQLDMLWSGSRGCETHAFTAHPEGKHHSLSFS
Briefly: Inhibition of JAK3 (unknown origin) preincubated for 10 mins followed by kinase substrate and ATP addition and measured for 30 mins by mobility shift assay.

Chain of Tyrosine-protein kinase BTK (Q06187 whole entry): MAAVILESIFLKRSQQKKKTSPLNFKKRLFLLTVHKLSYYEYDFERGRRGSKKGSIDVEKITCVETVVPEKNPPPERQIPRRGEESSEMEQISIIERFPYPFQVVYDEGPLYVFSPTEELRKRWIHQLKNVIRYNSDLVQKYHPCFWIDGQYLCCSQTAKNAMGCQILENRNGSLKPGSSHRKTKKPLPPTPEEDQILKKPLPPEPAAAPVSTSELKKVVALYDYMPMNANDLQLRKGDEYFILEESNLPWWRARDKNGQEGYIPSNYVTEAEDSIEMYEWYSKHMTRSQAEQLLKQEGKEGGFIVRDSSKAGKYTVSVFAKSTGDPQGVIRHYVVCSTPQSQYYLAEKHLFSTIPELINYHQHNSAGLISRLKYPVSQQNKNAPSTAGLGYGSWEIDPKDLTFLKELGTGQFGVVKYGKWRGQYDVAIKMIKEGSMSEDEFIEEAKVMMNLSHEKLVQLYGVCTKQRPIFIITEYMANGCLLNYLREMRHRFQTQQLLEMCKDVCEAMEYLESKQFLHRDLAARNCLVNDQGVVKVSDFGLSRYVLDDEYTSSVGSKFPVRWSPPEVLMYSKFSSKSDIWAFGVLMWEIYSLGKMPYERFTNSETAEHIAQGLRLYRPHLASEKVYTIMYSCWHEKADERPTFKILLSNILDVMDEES

On to `C=CC(=O)Nc1cccc(Cn2nc(-c3ccc(NC(=O)c4ccccc4)c4c3OCO4)c3c(N)ncnc32)c1`, for which the 50% inhibitory concentration (IC50) was 29 nM in experiment [1] and greater than 10000 nM in experiment [2].

For `C=CC(=O)N1CCC[C@@H](n2nc(-c3ccc(NC(=O)c4ccc(C(C)(C)C)cc4)c4c3OCO4)c3c(N)ncnc32)C1`, the half-maximal inhibitory concentration (IC50) in experiment [1] came out at 2.7 nM; in experiment [2], 37 nM.

As for `C=CC(=O)N1CCC[C@@H](n2nc(-c3ccc(NC(=O)c4cc5ccccc5s4)c4c3OCO4)c3c(N)ncnc32)C1`, the results for the IC50 in experiment [1] and in experiment [2] were 0.42 nM and 19 nM, respectively.

As to `N#C/C(=C\C1CC1)C(=O)N1CCC[C@@H](n2nc(-c3ccc(NC(=O)c4ccccc4)c4c3OCO4)c3c(N)ncnc32)C1`, the half-inhibitory concentration (IC50) was 3 nM in experiment [1] and greater than 10000 nM in experiment [2].

For the compound `C=CC(=O)N1CCC[C@@H](n2nc(-c3ccc(NC(=O)c4sc5ccccc5c4Cl)c4c3OCO4)c3c(N)ncnc32)C1`, the half-maximal inhibitory concentration (IC50) in experiment [1] was 2.4 nM; in experiment [2], 30 nM.

Consider `CC#CC(=O)N1CCC[C@@H](n2nc(-c3ccc(NC(=O)c4ccccc4)c4c3OCO4)c3c(N)ncnc32)C1`, for which the IC50 in experiment [1] is 24 nM; in experiment [2], greater than 10000 nM.

Regarding `C=CC(=O)N1CCC[C@@H](n2nc(-c3ccc(NC(=O)c4cccc(N(C)C)c4)c4c3OCO4)c3c(N)ncnc32)C1`, the IC50 came to 1.02 nM in experiment [1] and 97 nM in experiment [2].

For `C=CC(=O)N1CCC[C@@H](n2nc(-c3ccc(NC(=O)c4ccc(OC)c(OC)c4)c4c3OCO4)c3c(N)ncnc32)C1`, the concentration for half-maximal inhibition (IC50) came out at 3.4 nM in experiment [1] and 147 nM in experiment [2].

For the compound `C=CC(=O)N1CCC[C@@H](n2nc(-c3ccc(NC(=O)c4cccc(Cl)c4)c4c3OCO4)c3c(N)ncnc32)C1`, the values for the 50% inhibitory concentration (IC50) in experiment [1] and in experiment [2] were 1.8 nM and 44 nM, respectively.

With `C=CC(=O)N1CCC[C@@H](n2nc(-c3ccc(NC(=O)c4ccc(Cl)cc4)c4c3OCO4)c3c(N)ncnc32)C1`, the IC50 in experiment [1] came out at 1.3 nM; in experiment [2], 44 nM.

On to `C=CC(=O)N1CCC[C@@H](n2nc(-c3ccc(NC(=O)c4ccc[nH]4)c4c3OCO4)c3c(N)ncnc32)C1`, for which the half-inhibitory concentration (IC50) in experiment [1] turned out to be 2.4 nM; in experiment [2], 100 nM.

Take `CCC(=O)N1CCC[C@@H](n2nc(-c3ccc(NC(=O)c4ccccc4)c4c3OCO4)c3c(N)ncnc32)C1`: the IC50 in experiment [1] was 46 nM; in experiment [2], greater than 10000 nM.

On to `C=CC(=O)N1CCC[C@@H](n2nc(-c3ccc(NC(=O)c4ccccn4)c4c3OCO4)c3c(N)ncnc32)C1`, for which the results for the IC50 in experiment [1] and in experiment [2] were 1.4 nM and 70 nM, respectively.

Take `C=CC(=O)N1CCC[C@@H](n2nc(-c3ccc(NC(=O)c4cccc5c4CCCC5)c4c3OCO4)c3c(N)ncnc32)C1`: the IC50 in experiment [1] amounted to 1.9 nM; in experiment [2] it was 35 nM.

For the compound `C=CC(=O)N1CCC[C@@H]1Cn1nc(-c2ccc(NC(=O)c3ccc(N(C)C)cc3)c3c2OCO3)c2c(N)ncnc21`, the IC50 stood at 6 nM in experiment [1] and 645 nM in experiment [2].

Consider `C=CC(=O)N1CCC[C@@H](n2nc(-c3ccc(NC(=O)c4ccco4)c4c3OCO4)c3c(N)ncnc32)C1`, for which the results for the IC50 in experiment [1] and in experiment [2] were 1.48 nM and 192 nM, respectively.

For `N#CCC(=O)N1CCC[C@@H](n2nc(-c3ccc(NC(=O)c4ccccc4)c4c3OCO4)c3c(N)ncnc32)C1`, the 50% inhibitory concentration (IC50) in experiment [1] is 60 nM; in experiment [2], greater than 10000 nM.

`C=CC(=O)N1CCC[C@@H](n2nc(-c3ccc(NC(=O)c4ccc(OC)cc4)c4c3OCO4)c3c(N)ncnc32)C1`: the half-maximal inhibitory concentration (IC50) in experiment [1] is 1.5 nM; in experiment [2], 44 nM.

For the compound `C=CC(=O)N1CCC[C@@H](n2nc(-c3ccc(NC(=O)C45CC6CC(CC(C6)C4)C5)c4c3OCO4)c3c(N)ncnc32)C1`, the IC50 turned out to be 5.94 nM in experiment [1] and 500 nM in experiment [2].

Consider `C=CC(=O)N1CCC[C@@H](n2nc(-c3ccc(NC(=O)C4CCN(C)CC4)c4c3OCO4)c3c(N)ncnc32)C1`, for which the values for the IC50 in experiment [1] and in experiment [2] were 585 nM and greater than 10000 nM, respectively.

`C=CC(=O)N1CCC[C@@H](n2nc(-c3ccc(NC(=O)c4ccccc4N(C)C)c4c3OCO4)c3c(N)ncnc32)C1`: the values for the 50% inhibitory concentration (IC50) in experiment [1] and in experiment [2] were 3.49 nM and 122 nM, respectively.
